From US4535075A, “Dithiolane derivative, process for producing the same and use thereof” (Nihon Nohyaku Co., Ltd., priority 1982, dated 1985) come the findings set out here.

For one series, the system named is liver damage induced by carbon tetrachloride. Put plainly: Protective (Controlling) effect on liver damage induced by carbon tetrachloride. The class given is in vivo, mice (dd strain). The settings on record: 250 mg/kg p.o., CCl4 0.05 ml/kg after 6 h, 24 h; CCl4 alone >2,100. An excerpt: Protective (Controlling) Effect on liver damage induced by carbon tetrachloride.
Carbon tetrachloride administration induces centrilobular necrosis of the liver associated with loss of diphosphopyridine nucleotide, hepatic glycogen, coenzyme A and increase in neutral fat. Release of several enzymes from the hepatocytes, and increases of enzyme activities in the plasma are recognized as the result of the damage of the liver.
A suitable means for evaluating the degree induced by carbon tetrachloride or the degree of protection afforded by drugs is to study the plasma glutamic-pyruvic transaminase (p-GPT) activity. […]
After 6 hours, carbon tetrachloride was administered orally 0.05 ml/kg.
Animals were killed 24 hours after carbon tetrachloride administration, and the liver was grossly observed.
The plasma was obtained by centrifugation. Activity of p-GPT were determined by the method of Reitman and Frankel and expressed in Karmen units.
Score for liver damage index was as follows:
1 Each figure indicated average of 5 mice.
The molecule `CCCOC(=O)C(C(=O)OCCC)=C1SC(O)C(O)S1` (centres unmarked) [Compound 3] returned a p-GPT of 12 Karmen units.

Regarding `CC(=O)C(C(=O)OCC(C)C)=C1SC(O)C(O)S1` (centres unmarked) [Compound 39], the p-GPT is on record as 19 Karmen units.

Consider `CC(=O)C(C(=O)OC(C)C)=C1SC(O)C(O)S1` (centres unmarked) [Compound 37, isopropyl 4,5-dihydroxy-1,3-dithiolan-2-ylideneacetoacetate], for which the p-GPT is recorded as 149 Karmen units.

Take `CCCCC(=O)C(C(=O)OCC)=C1SC(O)C(O)S1` (centres unmarked) [Compound 52]: the p-GPT was 25 Karmen units.

As to `CCC(C)OC(=O)C(C(C)=O)=C1SC(O)C(O)S1` (centres unmarked) [Compound 40], the p-GPT came to 172 Karmen units.

As for `CC(=O)C(C(=O)OC1CCCCC1)=C1SC(O)C(O)S1` (centres unmarked) [Compound 44], the p-GPT was found to be 73 Karmen units.

With `CC(C)COC(=O)C(C(=O)OCC(C)C)=C1SC(O)C(O)S1` (centres unmarked) [Compound 5], the p-GPT is on record as 135 Karmen units.

Regarding `CCCCCOC(=O)C(C(C)=O)=C1SC(O)C(O)S1` (centres unmarked) [Compound 42], the p-GPT is given as 31 Karmen units.

On to `CC(=O)C(C(=O)OCc1ccccc1)=C1SC(O)C(O)S1` (centres unmarked) [Compound 48], for which the p-GPT is recorded as 18 Karmen units.

For `CC(C)CCOC(=O)C(C(=O)OCCC(C)C)=C1SC(O)C(O)S1` (centres unmarked) [Compound 9], the p-GPT was determined as 47 Karmen units.

For `CC(=O)C(C(=O)OCCC(C)C)=C1SC(O)C(O)S1` (centres unmarked) [Compound 43], the p-GPT was found to be 36 Karmen units.

The same series, now with this note: 250 mg/kg p.o., CCl4 0.05 ml/kg after 6 h, 24 h; average of 5 mice; 0 Normal, 2 Slightly recognized, 4 Clearly observable damage, 6 Heavy damage; CCl4 alone 5.0.
Regarding `CCCOC(=O)C(C(=O)OCCC)=C1SC(O)C(O)S1` (centres unmarked) [Compound 3], the “Liver Damage Index” value was 0.2.

Take `CC(=O)C(C(=O)OCC(C)C)=C1SC(O)C(O)S1` (centres unmarked) [Compound 39]: the “Liver Damage Index” value was determined as 0.2.

On to `CC(=O)C(C(=O)OC(C)C)=C1SC(O)C(O)S1` (centres unmarked) [Compound 37, isopropyl 4,5-dihydroxy-1,3-dithiolan-2-ylideneacetoacetate], for which the “Liver Damage Index” value came to 0.4.

Consider `CCCCC(=O)C(C(=O)OCC)=C1SC(O)C(O)S1` (centres unmarked) [Compound 52], for which the “Liver Damage Index” value was determined as 0.4.

As to `CCC(C)OC(=O)C(C(C)=O)=C1SC(O)C(O)S1` (centres unmarked) [Compound 40], the “Liver Damage Index” value was determined as 0.4.

With `CC(=O)C(C(=O)OC1CCCCC1)=C1SC(O)C(O)S1` (centres unmarked) [Compound 44], the “Liver Damage Index” value was determined as 0.4.

As for `CC(C)COC(=O)C(C(=O)OCC(C)C)=C1SC(O)C(O)S1` (centres unmarked) [Compound 5], the “Liver Damage Index” value came to 0.0.

On to `CCCCCOC(=O)C(C(C)=O)=C1SC(O)C(O)S1` (centres unmarked) [Compound 42], for which the “Liver Damage Index” value is reported as 0.0.

Consider `CC(=O)C(C(=O)OCc1ccccc1)=C1SC(O)C(O)S1` (centres unmarked) [Compound 48], for which the “Liver Damage Index” value was 0.0.

For `CC(C)CCOC(=O)C(C(=O)OCCC(C)C)=C1SC(O)C(O)S1` (centres unmarked) [Compound 9], the “Liver Damage Index” value is on record as 0.0.

`CC(=O)C(C(=O)OCCC(C)C)=C1SC(O)C(O)S1` (centres unmarked) [Compound 43]: the “Liver Damage Index” value amounted to 0.2.

Another series has as its system liver damage induced by α-naphthyl isothiocyanate (ANIT). Put plainly: Protective effect on liver damage induced by ANIT (Method 2). It counts as in vivo, mice (dd strain). The settings on record: Table 3-3; 250 mg/kg p.o., ANIT 35 mg/kg p.o. after 6 h, 24 h; control 2.9, ANIT alone >9.6. The protocol: (§1) Protective effect on liver damage induced by α-naphthyl isothiocyanate (referred to as "ANIT", hereinafter).
Test compounds, dissolved or suspended in olive oil or diethyleneglycol, were orally administered at the dose of 250 mg/kg to the mice (Six or Seven-week-old male mice-dd strain).
After 6 hours, ANIT dissolved in olive oil, was aministered orally at 35 mg/kg.
Mice were sacrificed at 24 hours after ANIT administration and blood samples were collected. The blood samples were centrifuged and plasma was obtained.
Plasma GPT activity and alkaline phosphatase activity were determined by Reitman & Frankel's method and Bessey-Lowry's method, respectively.
The activity was expressed with Karmen Unit and Bessey-Lowry Unit, respectively.
Consider `CC(=O)C(C(=O)OCC(C)C)=C1SC(O)C(O)S1` (centres unmarked) [Compound 39], for which the Alkaline phosphatase activity is recorded as 6.8 B-L.V.

Consider `CC(=O)C(C(=O)OC(C)C)=C1SC(O)C(O)S1` (centres unmarked) [Compound 37, isopropyl 4,5-dihydroxy-1,3-dithiolan-2-ylideneacetoacetate], for which the Alkaline phosphatase activity turned out to be 4.4 B-L.V.

For the molecule `CCC(C)OC(=O)C(C(C)=O)=C1SC(O)C(O)S1` (centres unmarked) [Compound 40], the Alkaline phosphatase activity is reported as 5.2 B-L.V.

Consider `CC(=O)C(C(=O)OC1CCCCC1)=C1SC(O)C(O)S1` (centres unmarked) [Compound 44], for which the Alkaline phosphatase activity is listed as 5.1 B-L.V.

For the molecule `CCCCCOC(=O)C(C(C)=O)=C1SC(O)C(O)S1` (centres unmarked) [Compound 42], the Alkaline phosphatase activity worked out at 4.8 B-L.V.

As for `CC(=O)C(C(=O)OCc1ccccc1)=C1SC(O)C(O)S1` (centres unmarked) [Compound 48], the Alkaline phosphatase activity was found to be 4.1 B-L.V.

Regarding `CC(=O)C(C(=O)OCCC(C)C)=C1SC(O)C(O)S1` (centres unmarked) [Compound 43], the Alkaline phosphatase activity is given as 5.9 B-L.V.

Staying with this series, now noted: Table 3-3; 250 mg/kg p.o., ANIT 35 mg/kg p.o. after 6 h, 24 h; control 17.5, ANIT alone >460.2.
With `CC(=O)C(C(=O)OCC(C)C)=C1SC(O)C(O)S1` (centres unmarked) [Compound 39], the p-GPT turned out to be 70.7 K.U.

`CC(=O)C(C(=O)OC(C)C)=C1SC(O)C(O)S1` (centres unmarked) [Compound 37, isopropyl 4,5-dihydroxy-1,3-dithiolan-2-ylideneacetoacetate] came in with a p-GPT of 177.4 K.U.

The molecule `CCC(C)OC(=O)C(C(C)=O)=C1SC(O)C(O)S1` (centres unmarked) [Compound 40] came in with a p-GPT of 272.5 K.U.

With `CC(=O)C(C(=O)OC1CCCCC1)=C1SC(O)C(O)S1` (centres unmarked) [Compound 44], the p-GPT worked out at 140.2 K.U.

In turn, `CCCCCOC(=O)C(C(C)=O)=C1SC(O)C(O)S1` (centres unmarked) [Compound 42] yielded a p-GPT of 30.8 K.U.

`CC(=O)C(C(=O)OCc1ccccc1)=C1SC(O)C(O)S1` (centres unmarked) [Compound 48] yielded a p-GPT of 36.8 K.U.

In the case of `CC(=O)C(C(=O)OCCC(C)C)=C1SC(O)C(O)S1` (centres unmarked) [Compound 43], the p-GPT was 298.9 K.U.

The series is the same for the next values; noted with them: Table 3-4; 250 mg/kg p.o., ANIT 35 mg/kg p.o. after 6 h, 24 h; control 3.7, ANIT alone 4.5.
As to `CCCCC(=O)C(C(=O)OCC)=C1SC(O)C(O)S1` (centres unmarked) [Compound 52], the Alkaline phosphatase activity came to 3.8 B-L.V.

Staying with this series, now noted: Table 3-4; 250 mg/kg p.o., ANIT 35 mg/kg p.o. after 6 h, 24 h; control 11.3, ANIT alone 300.3.
`CCCCC(=O)C(C(=O)OCC)=C1SC(O)C(O)S1` (centres unmarked) [Compound 52] displayed a p-GPT of 24.1 K.U.

System in the next series: not listed separately
Put plainly: acute oral toxicity (LD50). The following applies: in vivo, male rat. Here is the method:
The compounds represented by the general formula (I) are low in toxicity to mammals.
Their acute oral toxicities to male rat expressed as LD50 values are shown below.
For example, the LD50 values of the compound No. 1, No. 2, No. 3, No. 8 and No. 12 are 1,000-3,000 mg/kg, 3,000-5,000 mg/kg, more than 5,000 mg/kg, more than 5,000 mg/kg and 1,000-3,000 mg/kg, respectively.
Consider `CCCOC(=O)C(C(=O)OCCC)=C1SC(O)C(O)S1` (centres unmarked) [Compound 3], for which the LD50 is > 5000 mg/kg.

In another series the test system is liver damage induced by α-naphthyl isothiocyanate (ANIT). Put plainly: Protective effect on liver damage induced by ANIT (Method 1). It counts as in vivo, mice. The following applies: Table 3-1; 2 x 250 mg/kg p.o., ANIT 35 mg/kg p.o., 24 h; control 3.3, ANIT alone 5.3.
Text: as §1
It is well known that experimental cholestasis is accomplished by administration with ANIT in mice and rats, and studied as a cholestasis model in human being.
ANIT and CCl4 induce necrosis in the liver. ANIT causes it as small focci in perilobular parenchyna and CCl4 causes centrilobular parenchymal coagulation necrosis.
From these information, the elevation of plasma GPT activity in these models are thought to have defferent characteristics.
Test compounds, dissolved or suspended in olive oil or diethyleneglycol, were orally administered 2 times at intervals of 3 hrs to mice at the dose of 250 mg/kg. At 3 hrs after the second administration with test compounds, ANIT was administered orally at 35 mg/kg.
Mice were sacrificed at 24 hrs after ANIT administration and blood samples were collected. The blood samples were centrifuged and plasma was obtained.
Plasma GPT activity and alkaline phosphatase activity were determined by Reitman & Frankel's method and Bessey-Lowry's method, respectively. The activity was expressed with Karmen Unit and Bessey-Lowry Unit, respectively.
For `CCCOC(=O)C(C(=O)OCCC)=C1SC(O)C(O)S1` (centres unmarked) [Compound 3], the Alkaline phosphatase activity turned out to be 4.7 B-L.V.

Staying with this series, now noted: Table 3-1; 2 x 250 mg/kg p.o., ANIT 35 mg/kg p.o., 24 h; control 7.4, ANIT alone 324.0.
For `CCCOC(=O)C(C(=O)OCCC)=C1SC(O)C(O)S1` (centres unmarked) [Compound 3], the p-GPT was 53.0 K.U.

Still in this series, the particulars now being: Table 3-2; 2 x 250 mg/kg p.o., ANIT 35 mg/kg p.o., 24 h; ANIT alone 5.3.
In turn, `CC(C)COC(=O)C(C(=O)OCC(C)C)=C1SC(O)C(O)S1` (centres unmarked) [Compound 5] had an Alkaline phosphatase activity of 3.5 B-L.V.

In turn, `CC(C)CCOC(=O)C(C(=O)OCCC(C)C)=C1SC(O)C(O)S1` (centres unmarked) [Compound 9] gave an Alkaline phosphatase activity of 3.4 B-L.V.

Still in this series, the particulars now being: Table 3-2; 2 x 250 mg/kg p.o., ANIT 35 mg/kg p.o., 24 h; ANIT alone >653.7.
`CC(C)COC(=O)C(C(=O)OCC(C)C)=C1SC(O)C(O)S1` (centres unmarked) [Compound 5] returned a p-GPT of 134.8 K.U.

In the case of `CC(C)CCOC(=O)C(C(=O)OCCC(C)C)=C1SC(O)C(O)S1` (centres unmarked) [Compound 9], the p-GPT came out at 27.2 K.U.

In another series the test system is fatty liver induced by carbon tetrachloride. Put plainly: Protective effect on fatty liver (carbon tetrachloride). It counts as in vivo, rats (SD strain). The settings on record: percentage of mean value in carbon tetrachloride alone group, 100 mg/kg/day p.o. for 4 days, control 32.0. Here is the method:
Carbon tetrachloride also induces fatty liver. Carbon tetrachloride is generally considered to damage microsome and thereby to inhibit protein synthesis and induce fatty liver.
Carbon tetrachloride was subcutaneously administered to 5-6 week-old male rats (SD strain) for 4 days at the dose of 0.5 ml/kg/day.
Simultaneously, the compound of the present invention was orally administered to the rats for 4 days at the dose of 30 mg/kg/day or 100 mg/kg/day.
On the 5th day, the rats were sacrificed by exsanguination.
The controlling (protective) effect was evaluated by determining the content of triglyceride in the liver.
Triglyceride was determined colorimetrically by chromotropic acid method.
Each value represented the percentage of mean value in carbon tetrachloride alone group.
`CCCOC(=O)C(C(=O)OCCC)=C1SC(O)C(O)S1` (centres unmarked) [Compound 3]: the Triglyceride came to 39.0%.

Regarding `CC(C)COC(=O)C(C(=O)OCC(C)C)=C1SC(O)C(O)S1` (centres unmarked) [Compound 5], the Triglyceride was found to be 40.0%.

A word on the LD50: it is the dose expected to kill half of the subjects tested. Low values mean greater toxicity, high ones lower toxicity.
